Data taken from patent US20130178472A1, “ARYLSULFONAMIDE PYRIDINE-PYRIDINONE DERIVATIVES, PREPARATION OF SAME, AND THERAPEUTIC USE THEREOF” (SANOFI, priority 2010, published 2013).

What was measured:
[1] = molecular target: T1, active mutant recombinant S6K1 (1-421, T412E) (Homo sapiens, UniProt P23443, T412E); experiment: Inhibition of p70S6 kinase activity: phosphorylation of S6 peptide substrate, [γ-33]ATP filter assay; type: biochemical; details: peptide AKRRRLSSLRA 50 μM, ATP 100 μM, 20 minutes at 30° C.; read-out: IC50, concentration which inhibits 50% of the phosphorylation of the peptide substrate derived from the S6 ribosomal protein
T1 construct: S6K1 (1-421, T412E); purchased Upstate USA, Inc. Charlottesville Va; 14-333
T1 sequence (P23443 1-421 T412E): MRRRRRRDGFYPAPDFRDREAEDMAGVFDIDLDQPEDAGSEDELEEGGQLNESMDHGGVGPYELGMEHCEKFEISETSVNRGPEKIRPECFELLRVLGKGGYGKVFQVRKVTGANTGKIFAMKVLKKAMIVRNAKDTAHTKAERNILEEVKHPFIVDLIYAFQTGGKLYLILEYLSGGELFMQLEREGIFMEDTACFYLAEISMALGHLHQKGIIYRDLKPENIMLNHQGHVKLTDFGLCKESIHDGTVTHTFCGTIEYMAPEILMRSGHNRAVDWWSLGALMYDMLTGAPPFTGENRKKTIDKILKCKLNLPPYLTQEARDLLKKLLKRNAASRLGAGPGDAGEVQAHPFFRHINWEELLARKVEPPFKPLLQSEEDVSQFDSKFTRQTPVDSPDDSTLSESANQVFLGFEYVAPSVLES
Source text: (§1) The inhibitory activity on the PDGF receptor kinases is given by the concentration which inhibits 50% of the proliferation activity of Baf3 tel/PDGF cells respectively. The inhibitory activity on p70S6 kinase is given by the concentration which inhibits 50% of the phosphorylation of the peptide substrate derived from the S6 ribosomal protein (AKRRRLSSLRA, Upstate).
Measurement of the inhibition of the p70S6 kinase activity:
The active mutant recombinant S6K1 (1-421, T412E) (ref. 14-333, Upstate USA, Inc. Charlottesville Va.) (specific activity 298 U/mg) is incubated (20 mU/10 μl) with 8 concentrations of inhibitors solubilized at 1 mM in DMSO in the presence of the peptide substrate obtained from the S6 ribosomal protein (AKRRRLSSLRA, Upstate) (50 μM final) and of a cold ATP mixture (100 μM) and 1 μCi/well of [γ-33]ATP (NEN, Courtaboeuf, France). The enzyme reaction is carried out in a final volume of 50 μl in a 96-well filter plate (MultiScreen TM-PH opaque plate with Phospho-Cellulose cat # MAPHNOB, Millipore) previously soaked with 100 μl 1M Tris buffer pH 7.4 by adding the reagents of the S6 Kinase Assay kit (#17-136, Upstate) in the following order:
10 μl of 5% DMSO or various inhibitors at a 5× concentration
30 μl of reaction mixture containing the ADBI buffer (#20-108 Upstate, composed of 20 mM MOPS pH 7.2, 25 mM beta-glycerol phosphate, 5 mM EGTA, 1 mM sodium orthovanadate, 1 mM dithiothreitol), S6K1 (20 mU) and 250 μM peptide substrate [AKRRRLSSLRA] in ADBI buffer (#20-122, Upstate). The reaction is started by adding 10 μl of cold ATP/^33γATP mixture (1 μCi/50 μl as 500 μM ATP in ADBI buffer, 75 mM MgCl2) and then incubated for 20 minutes at 30° C. before being stopped by adding 20 μl of 7.5% phosphoric acid. The reaction mixture is filtered by aspiration under vacuum (Vacuum manifold, Millipore), the wells are rinsed twice with 200 μl of 7.5% phosphoric acid (2 minutes) and then twice with 200 μl of distilled H2O (2 minutes). After drying the plate, 25 μl/well of scintillant (Optiphase Super Mix, Wallac) are added and the radioactivity is detected with the Micro-Beta scintillation reader (Wallac). A negative control (all the reagents without peptide substrate) is prepared in order to determine the nonspecific binding of ^33γATP to the phosphocellulose filter which is subtracted from the experimental results.
It is thus apparent that the compounds of the invention have an inhibitory activity on the p70S6 kinase activity. This activity is given by the concentration which inhibits 50% of the phosphorylation of the peptide substrate derived from the S6 ribosomal protein (AKRRRLSSLRA, Upstate).

[2] = molecular target: T2, fusion protein Tel/PDGF-R beta (BaF3 Tel/PDGF cells) (Homo sapiens, UniProt P09619); experiment: Inhibition of PDGF beta receptor tyrosine kinase activity: proliferation of BaF3 Tel/PDGF cells; type: cell-based, murine; details: 72 h incubation, viable cells by cellular ATP (CellTiter-Glo); read-out: IC50, concentration which inhibits 50% of the proliferation of the Baf3 tel/PDGF cells
T2 construct: the transmembrane and intracellular part of the PDGF-R beta receptor; N-terminal part of transcription factor Tel (ETV6, own knowledge: UniProt P41212), containing the oligomerization domain; expressed in transfected cells; host or cells: murine hematopoietic cell line BaF/3 (BaF3 Tel/PDGF); the other entry of the earlier key: ETV6 (P41212, Transcription factor ETV6)
T2 sequence (P09619 with tags, fused parts or gaps): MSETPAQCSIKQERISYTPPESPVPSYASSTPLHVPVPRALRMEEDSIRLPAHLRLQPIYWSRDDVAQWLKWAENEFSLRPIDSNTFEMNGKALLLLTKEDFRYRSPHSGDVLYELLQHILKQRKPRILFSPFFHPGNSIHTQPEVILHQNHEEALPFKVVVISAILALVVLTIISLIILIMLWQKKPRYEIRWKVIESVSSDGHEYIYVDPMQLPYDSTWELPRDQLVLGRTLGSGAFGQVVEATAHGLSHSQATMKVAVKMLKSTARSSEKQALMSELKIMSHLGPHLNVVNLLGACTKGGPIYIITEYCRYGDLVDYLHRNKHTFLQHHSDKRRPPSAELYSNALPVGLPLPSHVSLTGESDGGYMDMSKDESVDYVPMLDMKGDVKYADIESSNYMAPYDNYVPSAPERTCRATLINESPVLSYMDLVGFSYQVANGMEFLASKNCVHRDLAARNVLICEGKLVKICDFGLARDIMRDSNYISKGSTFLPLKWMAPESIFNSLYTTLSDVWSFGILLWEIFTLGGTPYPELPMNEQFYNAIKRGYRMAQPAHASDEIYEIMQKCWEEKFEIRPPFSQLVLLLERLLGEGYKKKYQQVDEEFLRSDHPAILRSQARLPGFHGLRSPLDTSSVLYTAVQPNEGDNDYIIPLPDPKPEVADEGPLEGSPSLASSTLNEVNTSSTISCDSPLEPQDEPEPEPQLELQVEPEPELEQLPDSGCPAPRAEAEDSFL
Source text: as §1
Measurement of the inhibition of the PDGF beta receptor (PDGF-Rβ) tyrosine kinase activity (Baf-3 tel/PDGFRβ):
This test consists in evaluating the effects of the compounds on the PDGF beta receptor tyrosine kinase activity.
The inhibitory effect of the compounds according to the invention toward the PDGF-R receptor tyrosine kinase activity was evaluated on the hematopoietic murine cell line BaF/3 transfected with a plasmid encoding the fusion protein Tel/PDGF-R beta. This fusion protein is found in chronic myelomonocytic myeloid leukemias (CMML). It comprises the N-terminal part of the transcription factor Tel and the transmembrane and intracellular part of the PDGF-R beta receptor. This fusion protein is present in dimerized form (presence of an oligomerization domain in the N-terminal part of Tel) and therefore leads to the constitutive activity of the PDGF-R beta kinase domain. This BaF3 Tel/PDGF line has been described in the literature several times and in particular in detail in the article by CARROLL, M. et al., PNAS, 1996, 93, 14845-14850, CARROLL, M. et al., Blood 2002, 99, 14845-14850.
The BaF3 Tel/PDGF cells are washed with phosphate buffer and inoculated in 96-well plates, at the density of 5×10^4 cells/ml ([…]), in RPMI 1640 containing 10% FCS, in the presence or absence of the compounds to be tested. After 72 h of incubation, the viable cells are quantified by measuring the cellular ATP using the kit CellTiter-Glo®(Promega, Cat G7571). The cells are treated according to the instructions given by the kit supplier and the luminescence is measured with the aid of a Luminoskan (Ascent, Labsystem) with the following parameters: measurement: single; integration time: 1000 ms, lag time: 5 s.
It is thus apparent that the compounds according to the invention have an inhibitory activity on the PDGF-R beta tyrosine kinase activity. This activity is given by the concentration which inhibits 50% of the proliferation of the Baf3 tel/PDGF cells (IC50).

**Q.** With `CCn1c(N)c(C(=O)NC)c(=O)c2ccc(-c3ccc(NS(=O)(=O)c4cccc(Cl)c4Cl)c(Cl)c3)nc21` [compound No. 8, 2-amino-7-(3-chloro-4-{[(2,3-dichlorophenyl)sulfonyl]amino}phenyl)-1-ethyl-N-methyl-4-oxo-1,4-dihydro-1,8-naphthyridine-3-carboxamide] as the compound, how does the melting point read?
**A.** 311 °C

**Q.** And the IC50 [1]?
**A.** 0.412 µM

**Q.** Which melting point does the source give for `CCn1c(N)c(C(=O)NC)c(=O)c2ccc(-c3ccc(NS(=O)(=O)c4cc(Cl)ccc4Cl)c(F)c3)nc21` [compound No. 9, 2-amino-7-(4-{[(2,5-dichlorophenyl)sulfonyl]amino}-3-fluorophenyl)-1-ethyl-N-methyl-4-oxo-1,4-dihydro-1,8-naphthyridine-3-carboxamide] here?
**A.** 230 °C

**Q.** What about the IC50 [1] of the same compound?
**A.** 0.24 µM

**Q.** Which melting point does the source give for `CCn1c(N)c(C(=O)NC)c(=O)c2ccc(-c3ccc(NS(=O)(=O)c4cccc(Cl)c4Cl)cc3F)nc21` [compound No. 14, 2-amino-7-(4-{[(2,3-dichlorophenyl)sulfonyl]amino}-2-fluorophenyl)-1-ethyl-N-methyl-4-oxo-1,4-dihydro-1,8-naphthyridine-3-carboxamide] here?
**A.** 340 °C

**Q.** And the IC50 [1]?
**A.** 0.224 µM

**Q.** For `CCn1c(N)c(C(=O)NC)c(=O)c2ccc(-c3ccc(NS(=O)(=O)c4cccc(Cl)c4Cl)c(F)c3)nc21` [compound No. 18, 2-amino-7-(4-{[(2,3-dichlorophenyl)sulfonyl]amino}-3-fluorophenyl)-1-ethyl-N-methyl-4-oxo-1,4-dihydro-1,8-naphthyridine-3-carboxamide], which IC50 [2] is on record?
**A.** 0.012 µM

**Q.** What about the melting point of the same compound?
**A.** 333 °C

**Q.** And the IC50 [1]?
**A.** 0.132 µM
